Laboratory results: the supplement of paper PMC10307832

Key:
Assay in all cases: relative viability (nuclei count vs DMSO), 5 days (fraction); higher = more cells survive
GSK-J4 + Lapatinib = compound: CCOC(=O)CCNc1cc(N2CCc3ccccc3CC2)nc(-c2ccccn2)n1 [GSK-J4] + CS(=O)(=O)CCNCc1ccc(-c2ccc3ncnc(Nc4ccc(OCc5cccc(F)c5)c(Cl)c4)c3c2)o1 [Lapatinib] (partner 2 µM)
Summary of the method: (§1)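 One day after seeding in 1536-well plates, lung cancer cell lines were dosed by pin tool. Dosing was either single-drug or a fixed anchor-drug dose plus five library-drug doses (not always all listed) in √10 steps. After 5 days, nuclei were stained in one fix-and-stain step and counted on 4× images, and relative viability is the nuclei count of treated wells over that of vehicle wells, given as the median of duplicate plates.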

AZ3146 + Tozasertib = compound: CN1CCC(CC1)OC2=CC(=C(C=C2)NC3=NC=C4C(=N3)N(C(=O)N4C)C5CCCC5)OC [AZ3146] + Cc1cc(Nc2cc(N3CCN(C)CC3)nc(Sc3ccc(NC(=O)C4CC4)cc3)n2)n[nH]1 [Tozasertib] (partner 0.1 µM)
Summary of the method: as §1

AZ3146 + Alpelisib = compound: CN1CCC(CC1)OC2=CC(=C(C=C2)NC3=NC=C4C(=N3)N(C(=O)N4C)C5CCCC5)OC [AZ3146] + Cc1nc(NC(=O)N2CCC[C@H]2C(N)=O)sc1-c1ccnc(C(C)(C)C(F)(F)F)c1 [Alpelisib] (partner 2 µM)
Summary of the method: as §1

AZ3146 + Olaparib = compound: CN1CCC(CC1)OC2=CC(=C(C=C2)NC3=NC=C4C(=N3)N(C(=O)N4C)C5CCCC5)OC [AZ3146] + O=C(c1cc(Cc2n[nH]c(=O)c3ccccc23)ccc1F)N1CCN(C(=O)C2CC2)CC1 [Olaparib] (partner 8 µM)
Summary of the method: as §1

Cell Line | relative viability (GSK-J4 + Lapatinib; first compound 0.5 µM) | relative viability (GSK-J4 + Lapatinib; first compound 1.581 µM) | relative viability (GSK-J4 + Lapatinib; first compound 5 µM) | relative viability (GSK-J4 + Lapatinib; first compound 15.81 µM) | relative viability (GSK-J4 + Lapatinib; first compound 50 µM) | relative viability (AZ3146 + Tozasertib; first compound 0.08 µM) | relative viability (AZ3146 + Tozasertib; first compound 0.253 µM) | relative viability (AZ3146 + Tozasertib; first compound 0.8 µM) | relative viability (AZ3146 + Tozasertib; first compound 2.53 µM) | relative viability (AZ3146 + Tozasertib; first compound 8 µM) | relative viability (AZ3146 + Alpelisib; first compound 0.08 µM) | relative viability (AZ3146 + Alpelisib; first compound 0.253 µM) | relative viability (AZ3146 + Alpelisib; first compound 0.8 µM) | relative viability (AZ3146 + Alpelisib; first compound 2.53 µM) | relative viability (AZ3146 + Alpelisib; first compound 8 µM) | relative viability (AZ3146 + Olaparib; first compound 0.08 µM) | relative viability (AZ3146 + Olaparib; first compound 0.253 µM) | relative viability (AZ3146 + Olaparib; first compound 0.8 µM) | relative viability (AZ3146 + Olaparib; first compound 2.53 µM) | relative viability (AZ3146 + Olaparib; first compound 8 µM)
NCI-H1651 | 0.84 | 0.779 | 0.814 | 0.863 | 0.839 | 0.597 | 0.793 | 0.465 | 0.552 | 0.297 | 0.879 | 1.02 | 0.936 | 1.1 | 0.958 | 0.191 | 0.185 | 0.2 | 0.214 | 0.202
NCI-H1666 | 0.576 | – | 0.7 | 0.567 | 0.382 | 0.473 | 0.527 | 0.442 | 0.463 | 0.338 | 0.739 | 0.848 | 0.962 | 0.956 | 0.841 | 0.719 | 0.79 | 0.741 | 0.75 | 0.741
NCI-H1734 | 0.977 | 0.802 | 0.74 | 0.893 | 0.725 | 0.225 | 0.264 | 0.279 | 0.275 | 0.29 | 0.731 | 0.62 | 0.731 | 0.649 | 0.696 | 0.58 | 0.61 | 0.632 | 0.607 | 0.612
NCI-H1755 | 0.96 | 0.905 | 0.673 | 0.923 | 0.917 | 0.519 | 0.696 | 0.678 | 0.766 | 0.588 | 0.919 | 0.989 | 0.848 | 0.953 | 0.917 | 0.867 | 0.892 | 0.89 | 0.945 | 0.923
NCI-H1793 | 0.71 | 0.557 | 0.621 | 0.404 | 0.234 | 0.315 | 0.34 | 0.296 | 0.192 | 0.254 | 0.578 | 0.743 | 0.758 | 0.779 | 0.624 | 0.864 | 0.859 | 0.667 | 0.892 | 0.544
NCI-H1915 | 0.963 | 0.802 | 0.83 | 0.941 | 0.961 | 0.409 | 0.483 | 0.367 | 0.381 | 0.351 | 0.978 | 1 | 1 | 1.06 | 1.04 | 0.24 | 0.283 | 0.271 | 0.277 | 0.312
NCI-H1944 | 0.8 | 0.795 | 0.78 | 0.665 | 0.787 | 0.219 | 0.241 | 0.246 | 0.235 | 0.224 | – | 0.845 | 0.991 | 0.825 | 0.861 | 0.36 | 0.391 | 0.408 | 0.475 | 0.473
NCI-H1975 | 0.873 | 0.971 | – | 0.929 | 1.19 | 0.684 | 0.732 | 0.275 | 0.208 | 0.227 | 0.658 | 0.627 | 0.671 | 0.616 | 0.301 | 0.748 | 0.774 | 0.813 | 0.793 | 0.418
NCI-H1993 | 0.837 | 0.878 | 0.927 | 0.808 | 0.671 | 0.544 | 0.548 | 0.6 | 0.544 | 0.51 | 0.785 | 0.713 | 0.61 | 0.666 | 0.662 | 1 | 1.12 | 1.12 | 1.04 | 1.06
NCI-H2009 | 0.828 | 0.144 | 0.56 | 0.971 | 0.739 | 0.669 | 0.689 | 0.463 | 0.557 | 0.434 | 1.1 | 1.17 | 1.19 | 1.24 | 1.05 | 0.642 | 0.662 | 0.742 | 0.649 | 0.604
NCI-H2023 | 0.827 | 0.0641 | 0.727 | 0.641 | 0.474 | 0.331 | 0.328 | 0.171 | 0.157 | 0.147 | 0.593 | 0.499 | 0.642 | 0.608 | 0.463 | 0.464 | 0.451 | 0.494 | 0.436 | 0.152
NCI-H2085 | 0.696 | 0.679 | 0.77 | 0.615 | 0.397 | 0.747 | 0.786 | 0.727 | 0.587 | 0.508 | 0.993 | 0.947 | 0.94 | 0.99 | 0.808 | 0.792 | 0.749 | 0.749 | 0.764 | 0.711
NCI-H2087 | 0.794 | 0.514 | – | 1.01 | 0.57 | 0.215 | 0.31 | 0.236 | 0.17 | 0.175 | 1.03 | 1.04 | 1.19 | 1.11 | 0.953 | 0.563 | 0.654 | 0.649 | 0.637 | 0.419
NCI-H2126 | 0.817 | 0.657 | 0.854 | 0.69 | 0.59 | 0.71 | 0.803 | 0.722 | 0.378 | 0.234 | 0.683 | 0.705 | 0.757 | 0.724 | 0.731 | 0.908 | 0.898 | 0.897 | 0.967 | 0.862
NCI-H2170 | 0.311 | 0.247 | 0.265 | 0.261 | 0.22 | 0.593 | 0.838 | 0.644 | 0.561 | 0.266 | 0.72 | 0.767 | 0.82 | 0.794 | 0.733 | 0.578 | 0.63 | 0.542 | 0.614 | 0.623
NCI-H2228 | 1.11 | 0.598 | 1.17 | 0.943 | 0.938 | 0.224 | 0.385 | 0.292 | 0.198 | 0.18 | 0.694 | 0.812 | 0.679 | 0.705 | 0.603 | 0.873 | 0.632 | 0.672 | 0.503 | 0.544
